Assay results from patent publication US20200039930A1, “PROLINE AMIDE COMPOUNDS AND THEIR AZETIDINE ANALOGUES CARRYING A SPECIFICALLY SUBSTITUTED BENZYL RADICAL” (AbbVie Deutschland GmbH & Co. KG, priority 2017, published 2020).

Assays:
[1] = Metabolic stability: unbound intrinsic clearance in liver microsomes; type: in vitro ADME; details: rat; liver microsomes 0.25 mg protein/mL, 0.5 μM compound, pH 7.4, 37° C.; Cl int unbound=Cl int/fu mic; compounds used as acid addition salts; read-out: Cl int, mic unb. (r) (unbound intrinsic clearance)
Protocol: Samples of the tested compounds (0.5 μM) were preincubated together with rat liver microsomes (0.25 mg of microsomal protein/mL) in 0.05 M potassium phosphate buffer of pH 7.4 in microtiter plates at 37° C. for 5 minutes. The reaction was started by adding NADPH (1.0 mM). After 0, 5, 10, 15, 20 and 30 minutes, an aliquot was removed, the reaction was cooled and stopped by adding twice the amount of quench solution consisting of acetonitrile/methanol 1:1, and containing […] carbutamide as internal standard. The samples were frozen until analyzed. The remaining concentration of undegraded test substance was determined by liquid chromatography-tandem mass spectrometry (LC-MS/MS). The half-life (t1/2) was determined from the gradient of the ratio of the signal of (test substance/internal standard)/unit time plot, allowing the calculation of the half-life of the test substance, assuming first order kinetics, from the decrease in the concentration of the compound with time. The microsomal clearance (mClint) was calculated as follows: mClint=((ln(2)/t 1/2)/Microsomal Protein Concentration (mg/ml))*1000, leading to the unit of uL/min/mg. The scaled clearance (mClin_scaled) was calculated as mCLint_scaled=m CLint*(Microsomal Yield (mg/kg BW))/1000000*60, leading to the units L/h/kg. The Microsomal Yield is defined by the specifics of the used microsomes. Calculations were modified from refer-ences: Di, The Society for Biomolecular Screening, 2003, 453-462; Obach, D M D, 1999 vol 27. N 11, 1350-1359.
A suspension of 0.25 mg/ml microsomal protein spiked with 0.5 μM of test compound was pipetted on one side of a HTDialysis device (HTDialysis LLC,37 Ledgewood Drive, Gales Fery Conn. 06335) separated by a membrane with a MWcut off 12-14 K. 50 mM K-Phosphate buffer (pH 7.4) was added on the other side of the well. After incubation at 37° C. for 4 h while shaking at 150 rpm, aliquots of both sides were taken, quenched with MeOH/ACN 1:1 and 0.2 μM of internal standard and frozen until analy-sis by LCMSMS.
Cl int unbound=Cl int/fu mic
The compounds were used in form of their respective acid addition salts.

5-HT2C receptor = biological target: T1, 5-HT2C receptor (Homo sapiens, UniProt P28335); experiment: Human 5-HT2C functional assay (beta-arrestin2 recruitment, U2OS_HTR2C_β-Arrestin cells); type: cell-based; details: compounds used as acid addition salts; for EC50: U2OS_HTR2C_β-Arrestin cells, 1.5 h incubation, read-out: EC50 5-HT2C (potency in functional assay); for Emax: relative efficacy vs response to 10 µM 5-HT or maximal effect of 5-HT (100%)
T1 construct: host or cells: U2OS
T1 sequence (P28335 33-458): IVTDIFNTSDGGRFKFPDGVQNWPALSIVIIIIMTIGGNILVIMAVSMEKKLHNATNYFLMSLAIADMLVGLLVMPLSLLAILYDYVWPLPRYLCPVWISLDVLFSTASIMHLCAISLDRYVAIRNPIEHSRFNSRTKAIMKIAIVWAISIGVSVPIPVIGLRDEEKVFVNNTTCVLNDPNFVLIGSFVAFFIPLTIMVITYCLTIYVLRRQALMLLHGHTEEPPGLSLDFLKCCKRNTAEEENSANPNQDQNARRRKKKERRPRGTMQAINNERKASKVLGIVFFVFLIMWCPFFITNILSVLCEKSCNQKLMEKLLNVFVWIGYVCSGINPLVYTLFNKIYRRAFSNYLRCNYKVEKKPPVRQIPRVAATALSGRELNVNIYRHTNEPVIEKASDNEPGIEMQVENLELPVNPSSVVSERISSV
T1 sequence (P32121 whole entry partner): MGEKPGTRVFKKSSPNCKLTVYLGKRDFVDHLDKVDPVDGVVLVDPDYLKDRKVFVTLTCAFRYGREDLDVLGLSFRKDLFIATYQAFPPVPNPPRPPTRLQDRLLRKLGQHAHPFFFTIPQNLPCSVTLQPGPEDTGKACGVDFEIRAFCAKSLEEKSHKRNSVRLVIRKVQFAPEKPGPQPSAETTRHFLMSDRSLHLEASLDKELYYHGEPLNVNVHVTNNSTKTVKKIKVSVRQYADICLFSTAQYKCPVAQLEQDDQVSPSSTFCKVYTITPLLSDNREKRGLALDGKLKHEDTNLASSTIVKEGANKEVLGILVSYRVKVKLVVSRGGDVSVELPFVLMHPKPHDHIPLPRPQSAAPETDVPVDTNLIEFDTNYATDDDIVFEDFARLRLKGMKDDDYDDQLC
Protocol: The functional activity of compounds of formula I was assayed by incubation with U2OS_HTR2C_β-Arrestin cells (DiscoverX, 93-0289C3) to induce beta-arrestin2 recruitment to the 5-HT2C receptor. The agonist-induced recruitment and proximity of the receptor and beta-arrestin2 leads to complementation and formation of active β-galactosidase. The enzyme complementation results in enzyme activity, which is measured following the termination of the agonist incubation using DiscoveRx's detection reagent, which contains a chemiluminescent substrate which produces a high intensity signal. Cells were plated and a medium-change to a 1% serum containing medium was performed 24 h later. The next day, test compounds were added and incubated for 1.5 h before addition of detection reagent.
The response produced was measured and compared with the response produced by 10 [mu]M 5-HT or the maximal effect induced by 5-HT (defined as 100%) to which it was expressed as a percentage response (relative efficacy). Dose response curves were con-structed using Graphpad Prism (Graph Software Inc.) or using in house adapted software using a 4 parameter dose response model with variable slope (fit=(Bottom+(Top−Bottom)/(1+10^((LogEC50−x)*Hill Slope))res=(y−fit)). Results are compiled in the table below.

Row | SMILES | CLint scaled at 0.5 μM [1] [L/h/kg] | EC50 (5-HT2C receptor) [µM] | Emax (5-HT2C receptor) [%]
1 | COc1cc(OCc2cccc(F)c2)c(F)cc1CNC(=O)[C@@H]1CCCN1 [Example 1, (2S)—N-[[5-Fluoro-4-[(3-fluorophenyl)methoxy]-2-methoxy-phenyl]methyl]-pyrrolidine-2-carboxamide] | 80 to 250 | < 0.005 | > 70
2 | COc1cc(OCC(F)(F)C(F)C(F)(F)F)c(F)cc1CNC(=O)[C@@H]1CCCN1 (stereo partly drawn) [Example 21, (2S)—N-[[5-Fluoro-4-(2,2,3,4,4,4-hexafluorobutoxy)-2-methoxy-phenyl]methyl]-pyrrolidine-2-carboxamide] | < 30 | < 0.005 | > 70
3 | COc1cc(OCCc2ccc(F)cc2)c(F)cc1CNC(=O)[C@@H]1CCCN1 [Example 11, (2S)—N-[[5-Fluoro-4-[2-(4-fluorophenyl)ethoxy]-2-methoxy-phenyl]methyl]-pyrrolidine-2-carboxamide] | 80 to 250 | 0.005 to 0.015 | > 70
4 | COc1cc(OCc2cccc(F)c2F)c(F)cc1CNC(=O)[C@@H]1CCCN1 [Example 4, (2S)—N-[[4-[(2,3-Difluorophenyl)methoxy]-5-fluoro-2-methoxy-phenyl]methyl]-pyrrolidine-2-carboxamide] | 80 to 250 | 0.005 to 0.015 | > 70
5 | COc1cc(OCCc2ccc(C(F)(F)F)cc2)c(F)cc1CNC(=O)[C@@H]1CCCN1 [Example 14, (2S)—N-[[5-Fluoro-2-methoxy-4-[2-[4-(trifluoromethyl)phenyl]ethoxy]phenyl]-methyl]pyrrolidine-2-carboxamide] | 80 to 250 | 0.005 to 0.015 | > 70
6 | COc1cc(OC2CC(F)(F)C2)c(F)cc1CNC(=O)[C@@H]1CCCN1 [Example 28, (2S)—N-[[4-(3,3-Difluorocyclobutoxy)-5-fluoro-2-methoxy-phenyl]methyl]-pyrrolidine-2-carboxamide] | < 30 | 0.005 to 0.015 | > 70
7 | COc1cc(OCCC(F)(F)C(F)(F)F)c(F)cc1CNC(=O)[C@@H]1CCCN1 [Example 24, (2S)—N-[[5-Fluoro-2-methoxy-4-(3,3,4,4,4-pentafluorobutoxy)phenyl]methyl]-pyrrolidine-2-carboxamide] | < 30 | 0.005 to 0.015 | > 70
8 | COc1cc(OCc2ccc(F)cc2)c(F)cc1CNC(=O)[C@@H]1CCCN1 [Example 3, (2S)—N-[[5-Fluoro-4-[(4-fluorophenyl)methoxy]-2-methoxy-phenyl]methyl]-pyrrolidine-2-carboxamide] | 80 to 250 | < 0.005 | > 70
9 | COc1cc(OCCCC(F)(F)F)c(F)cc1CNC(=O)[C@@H]1CCCN1 [Example 23, (2S)—N-[[5-Fluoro-2-methoxy-4-(4,4,4-trifluorobutoxy)phenyl]methyl]pyrrolidine-2-carboxamide] | < 30 | < 0.005 | > 70
10 | COc1cc(OCc2ccnc(F)c2)c(F)cc1CNC(=O)[C@@H]1CCCN1 [Example 8, (2S)—N-[[5-fluoro-4-[(2-fluoro-4-pyridyl)methoxy]-2-methoxy-phenyl]methyl]-pyrrolidine-2-carboxamide] | < 30 | 0.015 to 0.03 | > 70
11 | COc1cc(OCc2ccccc2F)c(F)cc1CNC(=O)[C@@H]1CCCN1 [Example 6, (2S)—N-[[5-Fluoro-4-[(2-fluorophenyl)methoxy]-2-methoxy-phenyl]methyl]-pyrrolidine-2-carboxamide] | 80 to 250 | 0.015 to 0.03 | > 70

Next, values leading:

Row | CLint scaled at 0.5 μM [1] [L/h/kg] | EC50 (5-HT2C receptor) [µM] | Emax (5-HT2C receptor) [%] | SMILES
12 | 30 to 80 | 0.005 to 0.015 | > 70 | COc1cc(OCC2(C(F)(F)F)CC2)c(F)cc1CNC(=O)[C@@H]1CCCN1 [Example 27, (2S)—N-[[5-Fluoro-2-methoxy-4-[[1-(trifluoromethyl)cyclopropyl]methoxy]phenyl]-methyl]pyrrolidine-2-carboxamide]
13 | < 30 | < 0.005 | > 70 | COc1cc(O[C@H]2CC[C@H](C(F)(F)F)CC2)c(F)cc1CNC(=O)[C@@H]1CCCN1 [Example 33, (S)—N-(5-Fluoro-4-((trans-4-trifluoromethyl-cyclohexyl)oxy)-2-methoxybenzyl)-pyrrolidine-2-carboxamide]
14 | 30 to 80 | 0.015 to 0.03 | > 70 | COc1cc(OCC(F)(F)C(F)F)c(F)cc1CNC(=O)[C@@H]1CCCN1C [Example 36, (2S)—N-[[5-Fluoro-2-methoxy-4-(2,2,3,3-tetrafluoropropoxy)phenyl]methyl]-1-methyl-pyrrolidine-2-carboxamide]
15 | 30 to 80 | < 0.005 | > 70 | COc1cc(OC2CCCC(C(F)(F)F)C2)c(F)cc1CNC(=O)[C@@H]1CCCN1 (stereo partly drawn) [Example 35, (2S)—N-[[5-Fluoro-2-methoxy-4-[3-(trifluoromethyl)cyclohexoxy]phenyl]methyl]-pyrrolidine-2-carboxamide]
16 | < 30 | < 0.005 | 50 to 70 | COc1cc(O[C@H]2CC[C@H](C(F)(F)F)CC2)c(F)cc1CNC(=O)[C@@H]1CCN1 [Example 41, (2S)—N-[[5-Fluoro-2-methoxy-4-[trans 4-(trifluoromethyl)cyclohexoxy]phenyl]-methyl]azetidine-2-carboxamide]
17 | 80 to 250 | 0.005 to 0.015 | > 70 | COc1cc(OCc2ccc(C(F)(F)F)o2)c(F)cc1CNC(=O)[C@@H]1CCCN1 [Example 15, (2S)—N-[[5-fluoro-2-methoxy-4-[[5-(trifluoromethyl)-2-furyl]methoxy]phenyl]-methyl]pyrrolidine-2-carboxamide]
18 | < 30 | 0.015 to 0.03 | > 70 | COc1cc(OC2CCC(CF)CC2)c(F)cc1CNC(=O)[C@@H]1CCCN1 (stereo partly drawn) [Example 43, (2S)—N-[[5-Fluoro-4-[4-(fluoromethyl)cyclohexoxy]-2-methoxy-phenyl]methyl]-pyrrolidine-2-carboxamide]
19 | < 30 | < 0.005 | > 70 | COc1cc(OCC(F)(F)C(F)F)c(F)cc1CNC(=O)[C@@H]1CCCN1 [Example 20, (2S)—N-[[5-Fluoro-2-methoxy-4-(2,2,3,3-tetrafluoropropoxy)phenyl]methyl]-pyrrolidine-2-carboxamide]
20 | < 30 | 0.015 to 0.03 | > 70 | COc1cc(OCCC(F)(F)F)c(F)cc1CNC(=O)[C@@H]1CCCN1 [Example 19, (2S)—N-[[5-Fluoro-2-methoxy-4-(3,3,3-trifluoropropoxy)phenyl]methyl]pyrrolidine-2-carboxamide]
21 | < 30 | 0.005 to 0.015 | > 70 | COc1cc(OC(C)C(F)(F)C(F)F)c(F)cc1CNC(=O)[C@@H]1CCCN1 (stereo partly drawn) [Example 22, (2S)—N-[[5-Fluoro-2-methoxy-4-(2,2,3,3-tetrafluoro-1-methyl-propoxy)phenyl]-methyl]pyrrolidine-2-carboxamide]
